Source: US20060058346A1, “Novel enantiomers of etrahydroisoquinoline derivatives and theirpharmaceutically acceptable salts, their preparations and pharmaceutical compositions” (priority 2002, published 2006)
Read-outs that look alike come from different tables or passages of the source.

Key:
left auricle muscle = assay: Contractile force of left auricle muscle excised from rats; set-up: species or system rat; conditions: for Contractile Force of Auricle Muscles: vehicle control:100%
Experimental: (§1) Immediately after Sprague-Dawley rats (female or male) were anaesthetized with pentobarbital sodium (50 mg/kg, i.m.), the thorax was opened to excise the heart. The heart was submerged in Krebs solution, and left auricle muscle and right auricle muscle were then isolated. The left auricle muscle was placed in an organ bath for recording of contractile force, and applied with electrical field stimulation (voltage 10% higher than threshold voltage, 1 Hz frequency, 5 ms duration). In the case of right auricle muscle, which contracts spontaneously, the number of continuous beats was recorded. In this experiment, to measure contractile fore of the two auricle muscles, the organ bath was warmed to 37° C., and as a physiological solution, Krebs solution (119.8 mM NaCl, 4.6 mM KCl, 2.5 mM CaCl2, 1.2 mM MgCl2, 25 mM NaHCO3, 1.2 mM KH2PO4, 10 mM glucose, 1 mM EDTA, pH 7.4) was used. The Krebs solution (pH 7.4) was continuously saturated with a gas mixture of 95% O2 and 5% CO2. The auricle muscle was under a tension of 1 g, and Krebs solution was exchanged with fresh solution at intervals of 20 minutes while equilibrium was maintained during a recording period of 60 minutes.

right auricle muscle = assay: Heart rates (beats) of right auricle muscle excised from rats; set-up: species or system rat; conditions: for Heart Rates of Auricle Muscles: vehicle control:100%
Experimental: as §1

Rat Thoracic Aortas = assay: Relaxation of rat thoracic aortas contracted by phenylephrine; conditions: for IC50: Rattus norvegicus, Endothelial cell, 0.1 μM phenylephrine contraction; for relaxation of contracted blood vessels: concentration-dependant manner
Experimental: Experimental group was divided into two groups, group containing endothelial cells of blood vessel and group not containing. Blood vessel of thoracic aortas was induced to contract by treatment with 0.1 μM of phenyleprine under tension of 1 g. Upon arriving at equilibrium, the enantiomers were added to an organ bath in a cumulative manner. Relaxation of thoracic aortas was recorded using a physiograph (Grass P7), calculating their response to the compounds with consideration of their added amount.

[1] = system: RAW 264.7 macrophage cells; assay: Nitric oxide production in macrophage cell stimulated by LPS (Griess); type: cell-based; conditions: for NO production by LPS in macrophage cell: LPS 1 μg/ml; for inhibition of production of NO: LPS-stimulated macrophage cell
Experimental: RAW 264.7 macrophage cells were plated on 100 mm culture dishes at a density of 1-2×10^5 cells. Thereafter, the said macrophage cell was incubated in DMEM medium containing 10% fetal calf serum (heat-inactivated), 100 U/ml penicillin, and […] streptomycin in a CO2 incubator. The said macrophage cell was incubated therein confluently. The said incubated macrophage cells were transferred to serum-free DMEM medium, and further incubated therein for about 24 hours. Thereafter, macrophage cells were stimulated with LPS (1 μg/ml) for about 8 hours. (In this progress, experimental group was divided into two groups, group to which the compound was administered, and group to which the compound was not.) Then, nitrite quantification was achieved by performing calorimetric reaction for produced nitrite with Griess reagent and then measuring absorbance at 550 nm, while using NaNO2 as a standard.

[2] = system: rat with DIC and MOF induced by endotoxin; assay: Endotoxin-induced DIC and multiple organ failure in rat; type: in vivo; conditions: for serum level of FDP compared with R-configuration: 10 mg/kg, FIG. 4
Experimental: Rats (Crj:CD(SD); 250±20 g) were used to test sample. Before the compound was administered, the rat was not fed. The compound was orally administered one time per day for two days in an amount of 10 mg˜25 mg/10 ml/kg/day. Distilled water (control group and LPS group) or enantiomer was administered to the rat repeatedly. After one hour, rat was anaesthetized with intramuscular injection of 50 mg/kg of pentobarbital. […] Thereafter, 50 mg/kg of pentobarbital was injected at 2 hour to the rat by intramuscular injection. Therefore, the rat was anaesthetized for all the experiment and operation.
The blood (2 ml for FDP and 6 ml for other variables) was collected from abdominal artery using a plastic syringe, into glass tube containing soy bean trypsin inhibitor and Bothrops atrox venom to measure FDP and into plastic tube containing 2.2% sodium citrate (1/10, volume/volume). The aggregated blood was centrifuged at 1200×g for 5 minutes two times. Before measurement of FDP, the supernatant was stored at freezer for at least 12 hours. Citrated blood was centrifuged at 2000×g for 30 minutes. The supernatant was used for measurement of fibrinogen and PT or APTT time. The aggregated blood collected in glass tube was disposed at the room temperature for 30 min, centrifuged to give the serum for measurement of AST and BUN.
Platelet from total citrated blood was counted by using automatic platelet counter (PLT-4, Texas International Lab.) PT or APTT time was measured by Beckton Dickenson BBL Fibrosystem (Coctkeysville, USA). FDP analysis was accomplished by using Thrombo-wellcotest kit. The said analysis was accomplished by up and down dilution method semi-quantitatively. Measurement of AST and BUN was accomplished by using Autobiochemical analyzer (Hitach 747, Japan).

LPS-injected rat = assay: Survival in LPS-injected rat; type: in vivo; conditions: for survival at 30 mg/kg than 15 mg/kg: LPS 20 mg/kg
Experimental: Rats (25˜30 g, ICR), originated from NIH cancer institute (Bethesda, Md., USA) were purchased from Korea Test Animal Corp. (Unsung, Korea). 20 mg/kg of LPS was injected to abdominal cavity of the rat. Thereafter, survival was observed every 24 hours for seven days, to investigate effect of enantiomer on the survival in LPS-injected rat. The compound represented by formula 3 to 8 was administered 30 min before the LPS injection.

[3] = Acute toxicity in rat (LD50); type: in vivo; conditions: Sprague-Dawley, in vivo
Experimental: Sprague-Dawley rats (six weeks) were used as test sample. Each group was comprised of two rats. […] The said emulsion was administered to two rats one times using intravenous injection and intraperitoneal injection.

[4] = group containing endothelial cells, read-out: IC50 (E+), concentration showing relaxation response of 50%
[5] = group not containing endothelial cells, read-out: IC50 (E−), concentration showing relaxation response of 50%
[6] = 15 mg/kg compound 30 min before LPS 20 mg/kg i.p.
[7] = ip, single intraperitoneal injection, read-out: LD50, Intraperitioneal injection
[8] = single intravenous injection, read-out: LD50, Intravenous injection
[9] = 30 mg/kg compound 30 min before LPS 20 mg/kg i.p.

Oc1ccc(C[C@@H]2NCCc3cc(O)c(O)cc32)cc1 [Formula 3, (S)-6,7-Dihydroxy-1-(p-hydroxyphenylmethyl)-1,2,3,4-tetrahydroisoquinoline]
Contractile Force of Auricle Muscles (left auricle muscle; 1 × 10^−4 M): 300%
Contractile Force of Auricle Muscles (left auricle muscle; 1 × 10^−5 M): 300%
Contractile Force of Auricle Muscles (left auricle muscle; 1 × 10^−6 M): 250%
Contractile Force of Auricle Muscles (left auricle muscle; 1 × 10^−7 M): 140%
Contractile Force of Auricle Muscles (left auricle muscle; 3 × 10^−5 M): 300%
Contractile Force of Auricle Muscles (left auricle muscle; 3 × 10^−6 M): 290%
Contractile Force of Auricle Muscles (left auricle muscle; 3 × 10^−7 M): 180%
Heart Rates of Auricle Muscles (right auricle muscle; 1 × 10^−4 M): 250%
Heart Rates of Auricle Muscles (right auricle muscle; 1 × 10^−5 M): 180%
Heart Rates of Auricle Muscles (right auricle muscle; 1 × 10^−6 M): 145%
Heart Rates of Auricle Muscles (right auricle muscle; 1 × 10^−7 M): 130%
Heart Rates of Auricle Muscles (right auricle muscle; 3 × 10^−5 M): 200%
Heart Rates of Auricle Muscles (right auricle muscle; 3 × 10^−6 M): 150%
Heart Rates of Auricle Muscles (right auricle muscle; 3 × 10^−7 M): 140%
IC50 (Rat Thoracic Aortas; [4]): 0.917 µM
IC50 (Rat Thoracic Aortas; [5]): 4.3 µM
relaxation of contracted blood vessels (Rat Thoracic Aortas): induced relaxation
NO production by LPS in macrophage cell ([1]; compound 10 μM): 30.5 µM
NO production by LPS in macrophage cell ([1]; compound 50 μM): 22.3 µM
NO production by LPS in macrophage cell ([1]; compound 100 μM): 18.2 µM
serum level of FDP compared with R-configuration [2]: lower
platelet concentration compared with R-configuration ([2]; FIG. 2): higher
serum level of AST ([2]; LPS 15 mg/kg i.v. 4 hours): at the normal level
serum level of BUN, formula 3 versus formula 4 ([2]; LPS 15 mg/kg i.v. 4 hours): no difference
survival after six days (LPS-injected rat; [6]): 80%
survival at 30 mg/kg than 15 mg/kg (LPS-injected rat): increased
LD50 [3, 7]: 450 mg/kg
LD50 [3, 8]: 154 mg/kg

Oc1ccc(C[C@H]2NCCc3cc(O)c(O)cc32)cc1 [Formula 4, (R)-6,7-Dihydroxy-1-(p-hydroxyphenylmethyl)-1,2,3,4-tetrahydroisoquinoline]
effect on contractile force of auricle muscles (left auricle muscle): increased
Contractile Force of Auricle Muscles (left auricle muscle; 1 × 10^−4 M): 300%
Contractile Force of Auricle Muscles (left auricle muscle; 1 × 10^−5 M): 200%
Contractile Force of Auricle Muscles (left auricle muscle; 1 × 10^−6 M): 130%
Contractile Force of Auricle Muscles (left auricle muscle; 1 × 10^−7 M): 100%
Contractile Force of Auricle Muscles (left auricle muscle; 3 × 10^−5 M): 250%
Contractile Force of Auricle Muscles (left auricle muscle; 3 × 10^−6 M): 160%
Contractile Force of Auricle Muscles (left auricle muscle; 3 × 10^−7 M): 100%
effect on heart rates of auricle muscles (right auricle muscle): increased
Heart Rates of Auricle Muscles (right auricle muscle; 1 × 10^−4 M): 140%
Heart Rates of Auricle Muscles (right auricle muscle; 1 × 10^−5 M): 120%
Heart Rates of Auricle Muscles (right auricle muscle; 1 × 10^−6 M): 110%
Heart Rates of Auricle Muscles (right auricle muscle; 1 × 10^−7 M): 100%
Heart Rates of Auricle Muscles (right auricle muscle; 3 × 10^−5 M): 130%
Heart Rates of Auricle Muscles (right auricle muscle; 3 × 10^−6 M): 115%
Heart Rates of Auricle Muscles (right auricle muscle; 3 × 10^−7 M): 100%
IC50 (Rat Thoracic Aortas; [4]): 4.64 µM
IC50 (Rat Thoracic Aortas; [5]): 7.7 µM
relaxation of contracted blood vessels (Rat Thoracic Aortas): induced relaxation
inhibition of production of NO [1]: inhibited production of NO weakly than S-enantiomer did
NO production by LPS in macrophage cell ([1]; compound 10 μM): 20.1 µM
NO production by LPS in macrophage cell ([1]; compound 50 μM): 10.3 µM
NO production by LPS in macrophage cell ([1]; compound 100 μM): 8.2 µM
serum level of AST ([2]; LPS 15 mg/kg i.v. 4 hours): at the normal level
serum level of BUN, formula 3 versus formula 4 ([2]; LPS 15 mg/kg i.v. 4 hours): no difference
survival after six days (LPS-injected rat; [6]): 60%
survival after six days (LPS-injected rat; [9]): 67%
LD50 [3, 7]: 262 mg/kg
LD50 [3, 8]: 95 mg/kg

Oc1cc2c(cc1O)[C@H](Cc1cccc3ccccc13)NCC2 [Formula 5]
effect on contractile force of auricle muscles (left auricle muscle): strongly increased
Contractile Force of Auricle Muscles (left auricle muscle; 1 × 10^−4 M): 700%
Contractile Force of Auricle Muscles (left auricle muscle; 1 × 10^−5 M): 630%
Contractile Force of Auricle Muscles (left auricle muscle; 1 × 10^−6 M): 450%
Contractile Force of Auricle Muscles (left auricle muscle; 1 × 10^−7 M): 200%
Contractile Force of Auricle Muscles (left auricle muscle; 3 × 10^−5 M): 660%
Contractile Force of Auricle Muscles (left auricle muscle; 3 × 10^−6 M): 550%
Contractile Force of Auricle Muscles (left auricle muscle; 3 × 10^−7 M): 280%
effect on heart rates of auricle muscles (right auricle muscle): strongly stimulated
Heart Rates of Auricle Muscles (right auricle muscle; 1 × 10^−4 M): 190%
Heart Rates of Auricle Muscles (right auricle muscle; 1 × 10^−5 M): 180%
Heart Rates of Auricle Muscles (right auricle muscle; 1 × 10^−6 M): 175%
Heart Rates of Auricle Muscles (right auricle muscle; 1 × 10^−7 M): 150%
Heart Rates of Auricle Muscles (right auricle muscle; 3 × 10^−5 M): 187%
Heart Rates of Auricle Muscles (right auricle muscle; 3 × 10^−6 M): 178%
Heart Rates of Auricle Muscles (right auricle muscle; 3 × 10^−7 M): 162.5%
IC50 (Rat Thoracic Aortas; [4]): 0.714 µM
IC50 (Rat Thoracic Aortas; [5]): 5.5 µM
relaxation of contracted blood vessels (Rat Thoracic Aortas): induced relaxation
inhibition of production of NO [1]: strongly inhibited production of NO
NO production by LPS in macrophage cell ([1]; compound 10 μM): 21.3 µM
NO production by LPS in macrophage cell ([1]; compound 50 μM): 14.8 µM
NO production by LPS in macrophage cell ([1]; compound 100 μM): 14.2 µM
platelet concentration, higher than with R-configuration ([2]; 10 mg/kg oral, LPS 15 mg/kg i.v. 4 hours): 20%
serum level of FDP compared with R-configuration [2]: lower
survival after six days (LPS-injected rat; [6]): 100%
survival after six days (LPS-injected rat; [9]): 100%
survival at 30 mg/kg than 15 mg/kg (LPS-injected rat): increased
LD50 [3, 7]: 397 mg/kg
LD50 [3, 8]: 172 mg/kg
